The structures appear in SMILES notation.

Holding throughout (format): cell-based, human
In experiment [1] the test system is U-2 OS, GM847, Saos-2 (ALT), HeLa and HCT116 (telomerase-positive) cells. Description: Clonogenic assay of cells treated with PIP-199. On the procedure: (a) Quantitation of the surviving fraction of colonies from U-2 OS, GM847, Saos-2 (ALT), HeLa and HCT116 (telomerase-positive) cells treated with PIP-199 after 11 days. Colony counts were normalized to DMSO controls. Error bars represent mean±SEM from n=3 experiments, *p<0.05, n.s.=non-significant, Student's t-test.
Clonogenic assays were performed as described in Franken et al., 2006, with cells plated at 1,000 cells/10 cm dish with or without 200 nM 4-hydroxytamoxifen (Sigma Aldrich), which was replenished on days 4 and 7. For cells treated with PIP-199 (Aobious #AOB33732, CAS No: 622795-76-0), cells were plated at 300 cells/well in 6-well plates, and treated with 0-10 μM of drug in dimethyl sulfoxide (DMSO). Cells were left to grow for 11 days. Plates were washed with 1×PBS, then fixed and stained with 0.5% (w/v) crystal violet in 1 part acetic acid, 7 parts methanol for 2 h at room temperature. Plates were then washed with tap water and left to air dry. Colonies on each plate were counted and the plating efficiency and surviving fraction calculated.

Experiment [2] concerns U-2 OS, GM847 and Saos-2 ALT cell lines. Description: C-circle assay of cells treated with PIP-199. As to conditions: 0.5 μM PIP-199 for 72 h vs DMSO. An excerpt: (a) Schematic of MM2-tamoxifen (40HT)-inducible ER fusion protein-mediated inhibition of the FANCM-BTR complex interaction. […] (c) Tukey boxplots of TIFs in U-2 OS cells expressing MM2-ER or FF>AA-ER fusion proteins in the presence or absence of 40HT. Out of 3 experiments, n=150 cells scored per treatment, **p<0.005, Mann-Whitney test. (d) Representative dot blots and quantitation of C-circle assays in U-2 OS cells expressing MM2-ER or FF>AA-ER fusion proteins in the presence or absence of 40HT. C-circles were normalized to non-induced control. Error bars represent mean±SEM from n 3 experiments, *p<0.05, one-sample t-test. (e) Representative colony formation assay of GM847 and HCT116 cells expressing the MM2-ER fusion protein in the presence or absence of 40HT (top panel). Quantitation of the surviving fraction of colonies for ALT (U-2 OS, GM847 and Saos-2) and telomerase-positive (HeLa and HCT116) cell lines expressing MM2-ER or FF>AA-ER fusion proteins (bottom panel). Colony counts were normalized to non-induced controls. […] (f) Representative dot blots and quantitation of C-circle assays from U-2 OS, GM847, Saos-2, HeLa and HCT116 cells treated with 0.5 μM PIP-199 or vehicle control (DMSO) for 72 h. […] (g) Quantitation of the surviving fraction of colonies from U-2 OS, GM847, Saos-2, HeLa and HCT116 cells treated with PIP-199. […]

Experiment [3] has as its system HeLa cells. Briefly: FACS cell cycle analysis of FANCM-depleted HeLa cells with added agents. As to conditions: FANCM-depleted HeLa cells; hydroxyurea followed by block release.
Experimental: When indicated, cells were incubated with 1 μM camptothecin (Sigma-Aldrich) for 3 hours, 0.2 mM hydroxyurea (Sigma-Aldrich) for 16 h, 20 μM BIBR 1532 (Merck Millipore) for 7 days, and 10 μM RO-3306 (Selleckchem) for 18 h. […] For fluorescence-activated cell sorting, cells were trypsinized and pelleted by centrifugation at 500 g at 4° C. for 5 min. Cell pellets were either left untreated for viability assays or fixed in 70% ethanol at −20° C. for 30 min and treated with 25 μg/ml RNaseA (Sigma-Aldrich) in 1×PBS at 37° C. for 20 min. Cells were then washed in 1×PBS and stained with 20 μg/ml propidium iodide (Sigma-Aldrich) in 1×PBS at 4° C. for 10 min. Flow cytometry was performed on a BD FACSCalibur or a BD Accuri C6 (BD Biosciences). Data were analyzed using FlowJo software.
Experiment [4] has as its system HeLa cells. Description: Western blot of pS33 (RPA32 phosphorylated at serine 33). As to conditions: FANCM-depleted HeLa cells. On the technique in general: Immunoblotting shows a protein as a band on a membrane.
Experimental: HeLa cervical cancer, HT1080 fibrosarcoma, and HEK293 embryonic kidney cells were purchased from ATCC. […] HeLa, HT1080, HEK293, U2OS, and WI-38 VA13 cells were cultured in high glucose DMEM, GlutaMAX (Thermo Fisher Scientific) supplemented with 10% tetracycline-free fetal bovine serum (Pan BioTech) and 100 U/ml penicillin-streptomycin (Thermo Fisher Scientific). HuO9, Saos2, HOS and SKNAS cells were cultured in high glucose DMEM/F12, GlutaMAX (Thermo Fisher Scientific), supplemented with 10% tetracycline-free fetal bovine serum (Pan BioTech), 100 U/ml penicillin-streptomycin (Thermo Fisher Scientific) and non-essential amino acids (Thermo Fisher Scientific). Mycoplasma contaminations were tested using the VenorGeM Mycoplasma PCR Detection Kit (Minerva Biolabs) according to the manufacturer's instructions. When indicated, cells were incubated with 1 μM camptothecin (Sigma-Aldrich) for 3 hours, 0.2 mM hydroxyurea (Sigma-Aldrich) for 16 h, 20 μM BIBR 1532 (Merck Millipore) for 7 days, and 10 μM RO-3306 (Selleckchem) for 18 h. Cells were trypsinized and pelleted by centrifugation at 500 g at 4° C. for 5 min. […] Supernatant were recovered and protein concentrations were determined by Lowry assay using bovine serum albumin (BSA; Sigma-Aldrich) as standard. […]

For `CCOC(=O)N1CCN(C(c2ccccn2)c2c(-c3ccccc3)n(O)c3ccccc23)CC1` (centres unmarked) [PIP-199, 4-[(1-Hydroxy-2-phenyl-1H-indol-3-yl)-pyridin-2-yl-methyl]-piperazine-1-carboxylic acid ethyl ester], in experiment [1] (0-10 μM PIP-199, 11 days, ALT vs telomerase-positive cells), the “sensitivity in clonogenic assay (surviving fraction of colonies)” value was “hypersensitivity of ALT cells”. Further, the “surviving fraction of colonies” value in experiment [1] (normalized to DMSO controls, datapoint exceeding the visible axis of FIG. 11g, cell line not stated) amounted to 1.42. Also, the C-circles entry in experiment [2] was “increase in C-circles”.
Consider `NC(=O)NO` [HU, hydroxyurea], for which the cell cycle distribution entry in the experiment on HeLa cells [3] is “did not show an altered cell cycle distribution”. The pS33 accumulation entry with HeLa cells [4] is given as “did not promote pS33 accumulation”.
